For seven molecules, mutagenic call results are on record in PubChem BioAssay AID1259407 (Chemical Carcinogenesis Research Information System (CCRIS), 2018).

The series concerns CCRIS mutagenicity, Ames/micronucleus/aberration tests. In words: CCRIS mutagenicity studies.
[1] abbreviates: Test System: AMES SALMONELLA TYPHIMURIUM, Strain/Indicator: TA100, Metabolic Activation: NONE, Method: PREINCUBATION
The mark [2] stands for this setting: Test System: AMES SALMONELLA TYPHIMURIUM, Strain/Indicator: TA1535, Metabolic Activation: NONE, Method: PREINCUBATION
Where [3] appears, read: Test System: AMES SALMONELLA TYPHIMURIUM, Strain/Indicator: TA1537, Metabolic Activation: NONE, Method: PREINCUBATION
[4] abbreviates: Test System: MOUSE LYMPHOMA, Strain/Indicator: L5178Y (TK+/TK-), Metabolic Activation: NONE, Method: SUSPENSION/PLATE.
Where [5] appears, read: Test System: AMES SALMONELLA TYPHIMURIUM, Strain/Indicator: TA100, Metabolic Activation: NONE, Method: STANDARD PLATE.
Where [6] appears, read: Test System: AMES SALMONELLA TYPHIMURIUM, Strain/Indicator: TA98, Metabolic Activation: NONE, Method: STANDARD PLATE.

Structures are written as SMILES. Activity calls are given as the source filed them. No rule for the calls is given here.

Consider `CN(C)c1ccc(N=Nc2ccccc2C(=O)O)cc1`, for which the mutagenic call runs as follows: (Test System: AMES SALMONELLA TYPHIMURIUM, Strain/Indicator: TA98, Metabolic Activation: RAT, LIVER, S-9, POLYCHLORINATED BIPHENYLS, Method: PREINCUBATION) “active; positive”; (Test System: AMES SALMONELLA TYPHIMURIUM, Strain/Indicator: TA100, Metabolic Activation: RAT, LIVER, S-9, POLYCHLORINATED BIPHENYLS, Method: PREINCUBATION) “inactive; negative”.
On to `COc1c(Cl)c(Cl)c(Cl)c(Cl)c1Cl`, for which the mutagenic call is, setting by setting: (Test System: AMES SALMONELLA TYPHIMURIUM, Strain/Indicator: TA98, Metabolic Activation: HAMSTER, LIVER, S-9, AROCLOR 1254 (10%), Method: PREINCUBATION) “inactive; negative”; (Test System: AMES SALMONELLA TYPHIMURIUM, Strain/Indicator: TA98, Metabolic Activation: MOUSE, LIVER, S-9, AROCLOR 1254, Method: PREINCUBATION) “inactive; negative”; (Test System: AMES SALMONELLA TYPHIMURIUM, Strain/Indicator: TA98, Metabolic Activation: RAT, LIVER, S-9, AROCLOR 1254 (10%), Method: PREINCUBATION) “inactive; negative”; (Test System: AMES SALMONELLA TYPHIMURIUM, Strain/Indicator: TA100, Metabolic Activation: HAMSTER, LIVER, S-9, AROCLOR 1254 (10%), Method: PREINCUBATION) “inactive; negative”; (Test System: AMES SALMONELLA TYPHIMURIUM, Strain/Indicator: TA100, Metabolic Activation: MOUSE, LIVER, S-9, AROCLOR 1254, Method: PREINCUBATION) “inactive; negative”; under setting [1], “inactive; negative”. The mutagenic call reads like this: (Test System: AMES SALMONELLA TYPHIMURIUM, Strain/Indicator: TA100, Metabolic Activation: RAT, LIVER, S-9, AROCLOR 1254 (10%), Method: PREINCUBATION) “inactive; negative”; (Test System: AMES SALMONELLA TYPHIMURIUM, Strain/Indicator: TA1535, Metabolic Activation: HAMSTER, LIVER, S-9, AROCLOR 1254 (10%), Method: PREINCUBATION) “inactive; negative”; under setting [2], “inactive; negative”; (Test System: AMES SALMONELLA TYPHIMURIUM, Strain/Indicator: TA1535, Metabolic Activation: RAT, LIVER, S-9, AROCLOR 1254 (10%), Method: PREINCUBATION) “inactive; negative”; (Test System: AMES SALMONELLA TYPHIMURIUM, Strain/Indicator: TA1537, Metabolic Activation: HAMSTER, LIVER, S-9, AROCLOR 1254 (10%), Method: PREINCUBATION) “inactive; negative”; under setting [3], “active; positive”. For the same molecule, the mutagenic call is “inactive; negative” (Test System: AMES SALMONELLA TYPHIMURIUM, Strain/Indicator: TA1537, Metabolic Activation: RAT, LIVER, S-9, AROCLOR 1254 (10%), Method: PREINCUBATION); “inactive; negative” (Test System: E. COLI, Strain/Indicator: WP2, Metabolic Activation: MOUSE, LIVER, S-9, AROCLOR 1254, Method: PREINCUBATION); “inactive; negative” (Test System: E. COLI, Strain/Indicator: WP2, Metabolic Activation: NONE, Method: PREINCUBATION); “inactive; negative” (Test System: E. COLI, Strain/Indicator: WP2 UVRA, Metabolic Activation: MOUSE, LIVER, S-9, AROCLOR 1254, Method: PREINCUBATION); “inactive; negative” (Test System: E. COLI, Strain/Indicator: WP2 UVRA, Metabolic Activation: NONE, Method: PREINCUBATION); “inactive; negative” under setting [4]. Further, the mutagenic call (Test System: MOUSE LYMPHOMA, Strain/Indicator: L5178Y (TK+/TK-), Metabolic Activation: RAT, LIVER, S-9, AROCLOR 1254, Method: SUSPENSION/PLATE) was “active; positive”.
Take `NC(=O)Nc1cccc2cccnc12`: the mutagenic call (Test System: AMES SALMONELLA TYPHIMURIUM, Strain/Indicator: TA100, Metabolic Activation: S-9, Method: PREINCUBATION) is “inactive; negative”.
Take `O=[N+]([O-])c1ccc(Oc2ccc(Cl)cc2Cl)cc1`: the mutagenic call by setting is: (Test System: AMES SALMONELLA TYPHIMURIUM, Strain/Indicator: TA98, Metabolic Activation: S-9, Method: STANDARD PLATE) “inactive; negative”; under setting [5], “active; positive”; (Test System: AMES SALMONELLA TYPHIMURIUM, Strain/Indicator: TA100, Metabolic Activation: S-9, Method: STANDARD PLATE) “inactive; negative”; (Test System: AMES SALMONELLA TYPHIMURIUM, Strain/Indicator: TA100, Metabolic Activation: S-9 MIX, Method: STANDARD PLATE) “active; positive”; (Test System: AMES SALMONELLA TYPHIMURIUM, Strain/Indicator: YG1021, Metabolic Activation: S-9, Method: STANDARD PLATE) “inactive; negative”; (Test System: AMES SALMONELLA TYPHIMURIUM, Strain/Indicator: YG1024, Metabolic Activation: S-9, Method: STANDARD PLATE) “inactive; negative”. Besides, the mutagenic call is, setting by setting: (Test System: AMES SALMONELLA TYPHIMURIUM, Strain/Indicator: YG1026, Metabolic Activation: S-9, Method: STANDARD PLATE) “active; positive”; (Test System: AMES SALMONELLA TYPHIMURIUM, Strain/Indicator: YG1029, Metabolic Activation: S-9, Method: STANDARD PLATE) “active; positive”; (Test System: E. COLI, Strain/Indicator: WP2 UVRA, Metabolic Activation: HAMSTER, LIVER, S-9, AROCLOR 1254, Method: STANDARD PLATE) “inactive; negative”; (Test System: E. COLI, Strain/Indicator: WP2 UVRA, Metabolic Activation: HAMSTER, LIVER, S-9, Method: STANDARD PLATE) “inactive; negative”; (Test System: E. COLI, Strain/Indicator: WP2 UVRA, Metabolic Activation: MOUSE, LIVER, S-9, AROCLOR 1254, Method: STANDARD PLATE) “inactive; negative”; (Test System: E. COLI, Strain/Indicator: WP2 UVRA, Metabolic Activation: MOUSE, LIVER, S-9, Method: STANDARD PLATE) “inactive; negative”. The mutagenic call is “inactive; negative” (Test System: E. COLI, Strain/Indicator: WP2 UVRA, Metabolic Activation: NONE, Method: STANDARD PLATE); “inactive; negative” (Test System: E. COLI, Strain/Indicator: WP2 UVRA, Metabolic Activation: RAT, LIVER, S-9, AROCLOR 1254, Method: STANDARD PLATE); “inactive; negative” (Test System: E. COLI, Strain/Indicator: WP2 UVRA, Metabolic Activation: RAT, LIVER, S-9, Method: STANDARD PLATE); “inactive; negative” (Test System: MOUSE LYMPHOMA, Strain/Indicator: L5178Y (HPRT), Metabolic Activation: NONE, Method: SUSPENSION/PLATE); “inactive; negative” under setting [4].
Consider `O=C(O)/C=C/c1ccccc1[N+](=O)[O-]`, for which the mutagenic call by setting is: (Test System: AMES SALMONELLA TYPHIMURIUM, Strain/Indicator: TA98, Metabolic Activation: NONE, Method: PREINCUBATION) “inactive; negative”; under setting [6], “inactive; negative”; (Test System: AMES SALMONELLA TYPHIMURIUM, Strain/Indicator: TA98, Metabolic Activation: RAT, LIVER, S-9, AROCLOR 1254, Method: STANDARD PLATE) “inactive; negative”; (Test System: AMES SALMONELLA TYPHIMURIUM, Strain/Indicator: TA98, Method: PREINCUBATION) “inactive; negative”; under setting [1], “inactive; negative”; under setting [5], “inactive; negative”. Moreover, the mutagenic call reads like this: (Test System: AMES SALMONELLA TYPHIMURIUM, Strain/Indicator: TA100, Metabolic Activation: RAT, LIVER, S-9, AROCLOR 1254, Method: PREINCUBATION) “inactive; negative”; (Test System: AMES SALMONELLA TYPHIMURIUM, Strain/Indicator: TA100, Metabolic Activation: RAT, LIVER, S-9, AROCLOR 1254, Method: STANDARD PLATE) “inactive; negative”; (Test System: AMES SALMONELLA TYPHIMURIUM, Strain/Indicator: TA100, Method: PREINCUBATION) “inactive; negative”; under setting [2], “inactive; negative”; (Test System: AMES SALMONELLA TYPHIMURIUM, Strain/Indicator: TA1535, Method: PREINCUBATION) “inactive; negative”; under setting [3], “inactive; negative”. For the same molecule, the mutagenic call runs as follows: (Test System: AMES SALMONELLA TYPHIMURIUM, Strain/Indicator: TA1537, Method: PREINCUBATION) “inactive; negative”; (Test System: AMES SALMONELLA TYPHIMURIUM, Strain/Indicator: TA1538, Metabolic Activation: NONE, Method: PREINCUBATION) “inactive; negative”; (Test System: AMES SALMONELLA TYPHIMURIUM, Strain/Indicator: TA1538, Method: PREINCUBATION) “inactive; negative”.
`O=C(C(Cl)Cl)C(Cl)(Cl)Cl`: the mutagenic call is “active; positive” under setting [6] and “active; positive” under setting [5].
Consider `C=C(OC)[C@H](CSCC(Br)c1ccccc1)NC(=O)CC` (some centres not stated), for which the mutagenic call (Test System: AMES SALMONELLA TYPHIMURIUM, Strain/Indicator: TA100, Metabolic Activation: NONE, Method: SPOT TEST) is “inactive; negative”.
